Experimental findings from article PMC10641814 (Journal of Medicinal Chemistry, 2023) are described below.

The target in assay [1] is T1, hMAO-B (Homo sapiens, UniProt P27338).
T1 construct: purchased Sigma-Aldrich M7441
T1 sequence (P27338 1-520): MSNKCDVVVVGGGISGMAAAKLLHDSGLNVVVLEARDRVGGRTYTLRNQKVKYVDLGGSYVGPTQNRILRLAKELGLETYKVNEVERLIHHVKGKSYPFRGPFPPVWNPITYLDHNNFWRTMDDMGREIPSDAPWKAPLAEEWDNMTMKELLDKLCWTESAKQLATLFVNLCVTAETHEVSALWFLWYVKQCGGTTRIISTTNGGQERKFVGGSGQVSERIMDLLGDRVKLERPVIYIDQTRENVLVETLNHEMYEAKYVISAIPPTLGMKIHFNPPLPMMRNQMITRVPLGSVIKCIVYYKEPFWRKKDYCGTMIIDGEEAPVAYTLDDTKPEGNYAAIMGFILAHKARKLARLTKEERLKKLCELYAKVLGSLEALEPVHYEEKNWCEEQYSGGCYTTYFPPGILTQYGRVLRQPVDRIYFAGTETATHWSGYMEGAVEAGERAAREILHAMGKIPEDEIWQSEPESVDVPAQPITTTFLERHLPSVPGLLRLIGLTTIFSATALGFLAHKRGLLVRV
In words: MAO-B inhibition, fluorometric method, p-tyramine substrate. The format is biochemical. The settings on record: two experiments in duplicate.

Assay [2] deals with T2, h5-HT6R (Homo sapiens, UniProt P50406).
T2 construct: expressed in transfected cells
T2 sequence (P50406 whole entry): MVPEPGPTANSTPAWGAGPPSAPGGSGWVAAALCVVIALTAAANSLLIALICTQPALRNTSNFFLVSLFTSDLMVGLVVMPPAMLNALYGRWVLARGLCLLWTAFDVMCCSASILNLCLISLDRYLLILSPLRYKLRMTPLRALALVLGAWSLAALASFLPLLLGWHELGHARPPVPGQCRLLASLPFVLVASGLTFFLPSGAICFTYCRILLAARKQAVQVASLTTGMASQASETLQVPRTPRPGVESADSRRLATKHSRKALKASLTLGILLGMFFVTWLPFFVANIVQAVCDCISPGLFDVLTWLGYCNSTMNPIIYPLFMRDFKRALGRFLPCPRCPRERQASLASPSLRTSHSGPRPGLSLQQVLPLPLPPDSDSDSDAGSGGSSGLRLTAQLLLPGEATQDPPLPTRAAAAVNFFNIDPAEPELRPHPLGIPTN
In words: 5-HT6R radioligand binding ([3H]-LSD) in HEK293 cells stably expressing h5-HT6R. The conditions noted are these: 2 nM [3H]-LSD, mean of three independent experiments, read-out: Ki ± SEM [nM] 5-HT6R.

Each structure is given as a SMILES string.

What is called Ki is a measure of affinity in units of concentration, obtained from inhibition or displacement. For the molecule `Cl.c1ccc(Cn2ccc3c(N[C@H]4CCNC4)nc4ccccc4c32)cc1` [Compound 3], the “pIC50 ± SEM (MAO-B)” value in assay [1] is recorded as 6.57 ± 0.03. Also, in assay [2], the Ki worked out at 21 ± 3 nM.

With `Cl.Fc1cccc(Cn2ccc3c(N[C@H]4CCNC4)nc4ccccc4c32)c1` [Compound 4], the “pIC50 ± SEM (MAO-B)” value in assay [1] was 6.16 ± 0.05. Moreover, the Ki in assay [2] was 21 ± 2 nM.

For the molecule `Cl.Clc1cccc(Cn2ccc3c(N[C@H]4CCNC4)nc4ccccc4c32)c1` [Compound 5, (S)-1-(3-Chlorobenzyl)-N-(pyrrolidin-3-yl)-1H-pyrrolo[3,2-c]quinolin-4-amine Hydrochloride], the “pIC50 ± SEM (MAO-B)” value in assay [1] was 6.92 ± 0.04. Also, in assay [2], the Ki came to 7 ± 1 nM.

Turning to `Cl.Clc1cccc(Cn2ccc3c(N[C@@H]4CCNC4)nc4ccccc4c32)c1` [Compound 6], the “pIC50 ± SEM (MAO-B)” value in assay [1] amounted to 6.83 ± 0.01. The Ki in assay [2] was determined as 30 ± 4 nM.

`Brc1cccc(Cn2ccc3c(N[C@H]4CCNC4)nc4ccccc4c32)c1.Cl` [Compound 7]: the “pIC50 ± SEM (MAO-B)” value in assay [1] is reported as 6.89 ± 0.12. Also, in assay [2], the Ki was 10 ± 1 nM.

For the molecule `COc1cccc(Cn2ccc3c(N[C@H]4CCNC4)nc4ccccc4c32)c1.Cl` [Compound 8], the “pIC50 ± SEM (MAO-B)” value in assay [1] turned out to be 6.86 ± 0.07. In addition, the Ki in assay [2] turned out to be 25 ± 3 nM.

As for `Cl.Clc1cccc(Cn2ccc3c(NC[C@H]4CCCN4)nc4ccccc4c32)c1` [Compound 9], in assay [1], the “pIC50 ± SEM (MAO-B)” value was found to be 5.70 ± 0.04. Moreover, the Ki in assay [2] was found to be 214 ± 26 nM.

Consider `Cl.Clc1cccc(Cn2ccc3c(NC[C@@H]4CCCN4)nc4ccccc4c32)c1` [Compound 10, (S)-1-(3-Chlorobenzyl)-N-(pyrrolidin-2-ylmethyl)-1H-pyrrolo[3,2-c]quinolin-4-amine Hydrochloride], for which the “pIC50 ± SEM (MAO-B)” value in assay [1] is 6.52 ± 0.04. Besides, the Ki in assay [2] is 226 ± 30 nM.

For `Cl.Clc1cccc(Cn2ccc3c(NC[C@H]4CCNC4)nc4ccccc4c32)c1` [Compound 11], the “pIC50 ± SEM (MAO-B)” value in assay [1] amounted to 8.02 ± 0.12. Besides, in assay [2], the Ki was determined as 140 ± 18 nM.

For the molecule `Cl.Clc1cccc(Cn2ccc3c(NC[C@@H]4CCNC4)nc4ccccc4c32)c1` [Compound 12], the “pIC50 ± SEM (MAO-B)” value in assay [1] is listed as 6.52 ± 0.04. The Ki in assay [2] worked out at 122 ± 10 nM.

As to `CN(C)C1CCN(c2nc3ccccc3c3c2ccn3Cc2cccc(Cl)c2)C1.Cl` (stereo not shown) [Compound 13], in assay [1], the “pIC50 ± SEM (MAO-B)” value is on record as 7.43 ± 0.04. Also, the Ki in assay [2] is 1340 ± 156 nM.

Take `Cl.NC[C@@H]1CCN(c2nc3ccccc3c3c2ccn3Cc2cccc(Cl)c2)C1` [Compound 14]: the “pIC50 ± SEM (MAO-B)” value in assay [1] is recorded as 8.00 ± 0.00. Besides, the Ki in assay [2] amounted to 1520 ± 220 nM.

On to `CNC1CN(c2nc3ccccc3c3c2ccn3Cc2cccc(Cl)c2)C1.Cl` [Compound 15], for which the “pIC50 ± SEM (MAO-B)” value in assay [1] worked out at 8.22 ± 0.14. For the same molecule, in assay [2], the Ki turned out to be 723 ± 87 nM.

With `Cl.Clc1cccc(Cn2ccc3c(N4CCCNCC4)nc4ccccc4c32)c1` [Compound 17], the “pIC50 ± SEM (MAO-B)” value in assay [1] is recorded as 7.69 ± 0.12. The Ki in assay [2] is 138 ± 15 nM.

Regarding `Cl.Clc1cccc(Cn2ccc3c(N4C[C@H]5C[C@@H]4CN5)nc4ccccc4c32)c1` [Compound 18], in assay [1], the “pIC50 ± SEM (MAO-B)” value is 6.73 ± 0.02. Moreover, in assay [2], the Ki stood at 372 ± 48 nM.

Take `CN(C)C1CCN(c2nc3ccccc3c3c2ccn3Cc2cccc(Cl)c2)CC1.Cl` [Compound 19]: the “pIC50 ± SEM (MAO-B)” value in assay [1] came out at 5.60 ± 0.02. Besides, the Ki in assay [2] was determined as 1270 ± 173 nM.

Turning to `Cl.Clc1cccc(Cn2ccc3c(N4CC5(CCNC5)C4)nc4ccccc4c32)c1` [Compound 20, 1-(3-Chlorobenzyl)-4-(2,6-diazaspiro[3.4]octan-2-yl)-1H-pyrrolo[3,2-c]quinoline Hydrochloride], in assay [1], the “pIC50 ± SEM (MAO-B)” value came to 7.01 ± 0.11. The Ki in assay [2] worked out at 677 ± 82 nM.

Take `Cl.Clc1cccc(Cn2ccc3c(N4CC5(CNC5)C4)nc4ccccc4c32)c1` [Compound 21]: in assay [1], the “pIC50 ± SEM (MAO-B)” value is reported as 6.97 ± 0.05. In addition, the Ki in assay [2] worked out at 920 ± 127 nM.

As for `Cl.Clc1cccc(Cn2ccc3c(C4=CCNCC4)nc4ccccc4c32)c1` [Compound 22], in assay [1], the “pIC50 ± SEM (MAO-B)” value came out at 6.67 ± 0.04. In assay [2], the Ki came out at 34 ± 4 nM.

Turning to `Cl.Clc1cccc(Cn2ccc3c(C4CCNCC4)nc4ccccc4c32)c1` [Compound 23, 1-(3-Chlorobenzyl)-4-(piperidin-4-yl)-1H-pyrrolo[3,2-c]quinoline Hydrochloride], the “pIC50 ± SEM (MAO-B)” value in assay [1] is listed as 6.13 ± 0.06. For the same molecule, the Ki in assay [2] is 541 ± 80 nM.

`Cl.Clc1cccc(Cn2ccc3c(CN4CCNCC4)nc4ccccc4c32)c1` [Compound 24]: in assay [1], the “pIC50 ± SEM (MAO-B)” value stood at 5.21 ± 0.02. In addition, in assay [2], the Ki worked out at 119 ± 14 nM.

With `Cl.Clc1cccc(CNc2cc(N3CCNCC3)nc3ccccc23)c1` [Compound 25], the “pIC50 ± SEM (MAO-B)” value in assay [1] is recorded as 5.36 ± 0.03. Moreover, the Ki in assay [2] was found to be 152 ± 18 nM.

Take `Cl.Clc1cccc(CNc2ccnc(N3CCNCC3)c2)c1` [Compound 26]: in assay [1], the “pIC50 ± SEM (MAO-B)” value was found to be 5.18 ± 0.04. Further, in assay [2], the Ki was 5450 ± 793 nM.
